Laboratory results taken from US20110306671A1, “AMIDE DERIVATIVES OF ETHACRYNIC ACID” (The Regents of the The University of California, priority 2008, published 2011).
pEC50, pIC50: −log10 of the molar value.

Legend:
[1] = tested on: Primary CLL cells; assay: Cell viability assay (MTT) with primary CLL cells; conditions: for pEC50: read-out: CLL Inhibition EC50, CLL survival, MTT, 48 hours
[2] = tested on: Wnt signaling; assay: CellSensor LEF/TCF-bla SW480 cell-based assay (Wnt signaling inhibition); design: species or system human; conditions: for pIC50: LEF/TCF-bla SW480 cells, 20 hours
Procedure: To determine the specificity of compounds on Wnt/[…]-catenin pathway inhibition, CellSensor LEF/TCF-bla SW480 cell-based assay (Invitrogen, Carlsbad, Calif.) was used according to the supplier's instructions, but modified for a 96 well format. Cells were plated at 25,000 cells/well in assay medium in 96-well black plates with clear bottom (Corning) the day prior to compound treatment.

[3] = tested on: Normal PBMC; assay: Cell viability assay (MTT) with normal peripheral blood mononuclear cells; format: cell-based, human; conditions: data not shown
[4] = tested on: lymphoma and myeloma cells; conditions: Schmidt et al., 2009; cited from earlier work
[5] = tested on: Wnt/β-catenin signaling; assay: TOPflash reporter assay in transfected HEK293 cells; format: cell-based, human; conditions: for effect on EA-induced inhibition of Wnt/β-catenin signaling: TOPflash + Dvl, 50 μM EA with 1 mM NAC, 100 μM PDTC or 100 μM BHA, 24 hours
[6] = tested on: Primary CLL cells; assay: Cell apoptosis assay (DiOC6/PI flow cytometry) in primary CLL cells; format: cell-based, human; conditions: 3 μM EA with NAC 1 mM or BHA 100 μM, 48 hours

| Structure (SMILES) | pEC50 [1] | pIC50 [2] | other results |
| --- | --- | --- | --- |
| C=C(CC)C(=O)c1ccc(OCC(=O)Nc2ccc(C(=O)OC)cc2)c(Cl)c1Cl [Compound 23] | 5.39 | 4.94 |  |
| C=C(CC)C(=O)c1ccc(OCC(=O)Nc2ccc3c(c2)C(=O)NC3=O)c(Cl)c1Cl [Compound 12] | 5.60 | 5.31 |  |
| C=C(CC)C(=O)c1ccc(OCC(=O)Nc2ccc(C(=O)NC(CCC(=O)OCC)C(=O)OCC)cc2)c(Cl)c1Cl (stereo not drawn) [Compound 31] | 5.68 | 5.58 | decrease of CLL survival (in words) [1]: low micromolar concentrations; inhibition of Wnt signaling (in words) [2]: low micromolar concentrations |
| C=C(CC)C(=O)c1ccc(OCC(=O)Nc2ccc(C=CC(=O)OCC)cc2)c(Cl)c1Cl [Compound 38] | 5.77 | 5.42 |  |
| C=C(CC)C(=O)c1ccc(OCC(=O)Nc2ccc(Cc3ccc(N4C(=O)C5C6C=CC(C6)C5C4=O)cc3)cc2)c(Cl)c1Cl (stereo not drawn) [Compound 27] | 5.74 | 5.53 |  |
| C=C(CC)C(=O)c1ccc(OCC(=O)Nc2ccc(Cl)c(C(=O)O)c2)c(Cl)c1Cl [Compound 9] | 4.80 | < 4.30 |  |
| C=C(CC)C(=O)c1ccc(OCC(=O)Nc2ccc(C(=O)O)cn2)c(Cl)c1Cl [Compound 21] | 4.83 | < 4.30 |  |
| C=C(CC)C(=O)c1ccc(OCC(=O)Nc2nc3ccccc3s2)c(Cl)c1Cl [Compound 13] | 5.82 | 5.31 |  |
| C=C(CC)C(=O)c1ccc(OCC(=O)Nc2cccc(C(=O)O)c2)c(Cl)c1Cl [Compound 19] | 4.69 | 5.23 |  |
| C=C(CC)C(=O)c1ccc(OCC(=O)NO)c(Cl)c1Cl [Compound 5] | 5.35 | 5.00 |  |
| C=C(CC)C(=O)c1ccc(OCC(=O)Nc2ccc3c(c2)C(=O)c2ccccc2C3=O)c(Cl)c1Cl [Compound 32] | 5.68 | 5.53 |  |
| C=C(CC)C(=O)c1ccc(OC)c(Cl)c1Cl [Compound 43] |  |  | toxicity to peripheral blood mononuclear cells (PBMC) [3]: highly toxic |
| C=C(CC)C(=O)c1ccc(OCC(=O)Nc2ccc(C(=O)O)cc2)c(Cl)c1Cl [Compound 6] | 5.30 | 5.24 |  |
| Cc1cc(C2CCCCC2)n(O)c(=O)c1 [cic, ciclopiroxolamine] |  |  | induction of apoptosis [4]: significant induction of apoptosis |
| C=C(CC)C(=O)c1ccc(OCC(=O)Nc2ccc3[nH]cnc3c2)c(Cl)c1Cl [Compound 29] | 5.49 | 5.44 | decrease of CLL survival (in words) [1]: low micromolar concentrations; inhibition of Wnt signaling (in words) [2]: low micromolar concentrations |
| C=C(CC)C(=O)c1ccc(OCC(=O)NC2CCN(CC(=O)OC)CC2)c(Cl)c1Cl [Compound 18] | 4.97 | < 4.30 |  |
| C=C(CC)C(=O)c1ccc(OCC(=O)Nc2cc(Cl)ccc2C(=O)O)c(Cl)c1Cl [Compound 10] | 4.86 | 5.02 |  |
| CCCCS(=N)(=O)CCC(N)C(=O)O (stereo not drawn) [BSO, buthionine sulfoximine] |  |  | effect on Wnt/β-catenin signaling ([5]; cell-based system, data not shown): did not inhibit |
| C=C(CC)C(=O)c1ccc(OCC(=O)Nc2ccc(C#N)cc2)c(Cl)c1Cl [Compound 8] | 5.11 | 5.16 |  |
| C=C(CC)C(=O)c1ccc(OCC(=O)Nc2cc(OC)c(OC)cc2C(=O)O)c(Cl)c1Cl [Compound 11] | 4.66 | < 4.30 |  |
| C=C(CC)C(=O)c1ccc(OCC(=O)NCCCN2CCCC2=O)c(Cl)c1Cl [Compound 33] | 4.86 | < 4.30 |  |
| CCC(C)C(=O)c1ccc(OCC(=O)O)c(Cl)c1Cl (stereo not drawn) [Compound 42] | < 4.60 |  | decrease of CLL survival (in words) [1]: completely abrogated; inhibition of Wnt signaling (in words) [2]: completely abrogated; pIC50 ([2]; Homo sapiens): < 4.30 |
| C=C(CC)C(=O)c1ccc(OCC(=O)Nc2ccc(C(N)=O)cc2)c(Cl)c1Cl [Compound 4] | 5.43 | 5.32 |  |
| C=C(CC)C(=O)c1ccc(OCC(=O)NC(CS)C(=O)OCC)c(Cl)c1Cl (stereo not drawn) [Compound 7] | 5.32 | < 4.30 |  |
| C=C(CC)C(=O)c1ccc(OCC(=O)Nc2ccc(C(C)=O)cc2)c(Cl)c1Cl [Compound 28] | 5.41 | 5.30 |  |
| COc1ccc(O)c(C(C)(C)C)c1 [BHA, 3-t-butyl-4-hydroxyanisole] |  |  | protection of CLL cells from EA-induced apoptosis [6]: had no effect; effect on EA-induced inhibition of Wnt/β-catenin signaling [5]: did not reverse |
| C=C(CC)C(=O)c1ccc(OCC(=O)NCCc2c[nH]c3ccccc23)c(Cl)c1Cl [Compound 20] | 5.23 | 4.97 |  |
| C=C(CC)C(=O)c1ccc(OCC(=O)Nc2nc(C(=NOC)C(=O)O)cs2)c(Cl)c1Cl [Compound 30] | < 4.60 | < 4.30 |  |
| C=C(CC)C(=O)c1ccc(OCC(=O)Nc2ccc(C(=O)O)c(O)c2)c(Cl)c1Cl [Compound 22] | < 4.60 | < 4.30 |  |
| CC(=O)N[C@@H](CS)C(=O)O [NAC, N-acetyl-L-cysteine] |  |  | protection of CLL cells from EA-induced apoptosis [6]: significantly protected; effect on EA-induced inhibition of Wnt/β-catenin signaling [5]: significantly prevented |
